# Target: T1, ΔF508-CFTR (Homo sapiens, UniProt P13569, DEL508-508)
# T1 construct: expressed in transfected cells
# Experiment: Membrane potential optical assay for ΔF508-CFTR correction (identification of correction compounds)
# Assay type: cell-based
# Conditions: NIH3T3; NIH 3T3 cells stably expressing ΔF508-CFTR; read-out: % Efficacy
# Text: Assays for Detecting and Measuring M508-CFTR Correction Properties of Compounds
# Membrane potential optical methods for assaying ΔF508-CFTR modulation properties of compounds.
# The assay utilizes fluorescent voltage sensing dyes to measure changes in membrane potential using a fluorescent plate reader (e.g., FLIPR III, Molecular Devices, Inc.) as a readout for increase in functional ΔF508-CFTR in NIH 3T3 cells. The driving force for the response is the creation of a chloride ion gradient in conjunction with channel activation by a single liquid addition step after the cells have previously been treated with compounds and subsequently loaded with a voltage sensing dye.
# To identify small molecules that correct the trafficking defect associated with ˜F508-CFTR; a single-addition HTS assay format was developed. Assay Plates containing cells are incubated for ˜2-4 hours in tissue culture incubator at 37° C., S % CO2, 90% humidity. Cells are then ready for compound exposure after adhering to the bottom of the assay plates.
# The cells were incubated in serum-free medium for 16-24 hrs in tissue culture incubator at 37° C., S % CO2, 90% humidity in the presence or absence (negative control) of test compound. […] The addition of Cl^−-free medium promoted Cl^− efflux in response to ΔF508-CFTR activation and the resulting membrane depolarization was optically monitored using voltage sensor dyes. […]
# T1 sequence (P13569 with tags, fused parts or gaps DEL508-508): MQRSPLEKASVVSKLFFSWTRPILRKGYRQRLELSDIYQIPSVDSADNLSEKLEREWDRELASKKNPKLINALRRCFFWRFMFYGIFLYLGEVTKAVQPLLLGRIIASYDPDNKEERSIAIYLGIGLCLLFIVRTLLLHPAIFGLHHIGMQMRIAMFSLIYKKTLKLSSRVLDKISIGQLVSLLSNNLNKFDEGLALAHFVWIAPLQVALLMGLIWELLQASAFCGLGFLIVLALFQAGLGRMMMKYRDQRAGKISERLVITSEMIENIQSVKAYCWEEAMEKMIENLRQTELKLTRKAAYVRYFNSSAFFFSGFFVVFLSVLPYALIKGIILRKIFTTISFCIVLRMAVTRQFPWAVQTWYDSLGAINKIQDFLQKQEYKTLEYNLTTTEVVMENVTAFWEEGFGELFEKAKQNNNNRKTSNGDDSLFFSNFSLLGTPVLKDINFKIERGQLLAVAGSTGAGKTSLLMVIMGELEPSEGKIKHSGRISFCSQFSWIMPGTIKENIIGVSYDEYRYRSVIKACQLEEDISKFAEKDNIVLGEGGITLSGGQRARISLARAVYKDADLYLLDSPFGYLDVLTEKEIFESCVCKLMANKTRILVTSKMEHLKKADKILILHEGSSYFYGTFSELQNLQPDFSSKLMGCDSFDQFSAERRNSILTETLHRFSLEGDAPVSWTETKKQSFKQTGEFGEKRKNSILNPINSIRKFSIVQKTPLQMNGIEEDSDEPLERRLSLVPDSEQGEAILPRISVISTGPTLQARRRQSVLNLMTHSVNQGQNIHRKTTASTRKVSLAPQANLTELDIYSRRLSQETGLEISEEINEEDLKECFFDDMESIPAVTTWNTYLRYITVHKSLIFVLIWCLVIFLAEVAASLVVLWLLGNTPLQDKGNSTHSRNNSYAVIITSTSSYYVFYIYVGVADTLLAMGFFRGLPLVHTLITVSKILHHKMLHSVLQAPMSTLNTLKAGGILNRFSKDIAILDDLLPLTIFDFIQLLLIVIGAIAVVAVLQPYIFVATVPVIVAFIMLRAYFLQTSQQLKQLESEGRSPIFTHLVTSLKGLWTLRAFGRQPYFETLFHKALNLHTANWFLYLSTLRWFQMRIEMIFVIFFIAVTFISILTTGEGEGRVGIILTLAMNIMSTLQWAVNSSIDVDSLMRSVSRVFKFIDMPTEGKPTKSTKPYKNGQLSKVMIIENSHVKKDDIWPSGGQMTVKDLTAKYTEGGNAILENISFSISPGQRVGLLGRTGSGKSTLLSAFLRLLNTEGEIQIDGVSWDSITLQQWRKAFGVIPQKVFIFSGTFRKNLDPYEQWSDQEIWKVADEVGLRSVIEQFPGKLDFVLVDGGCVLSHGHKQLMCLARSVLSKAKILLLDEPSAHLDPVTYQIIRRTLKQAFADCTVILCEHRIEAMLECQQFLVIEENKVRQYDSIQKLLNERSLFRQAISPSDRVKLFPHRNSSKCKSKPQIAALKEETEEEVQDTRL
structure (smiles),measurement,value
"CC1(C)c2cc3cc(NC(=O)C4(c5ccc6c(c5)OC(F)(F)O6)CC4)c(F)cc3n2C[C@H](CO)OC1O (stereo partly drawn) [1-(2,2-difluorobenzo[d][1,3]dioxol-5-yl)-N-((4R)-8-fluoro-2-hydroxy-4-(hydroxymethyl)-1,1-dimethyl-1,2,4,5-tetrahydro-[1,4]oxazepino[4,5-a]indol-9-yl)cyclopropanecarboxamide]",Emax,> 100%

# From patent publication US20160166540A1, “MODULATORS FOR ATP-BINDING CASSETTE TRANSPORTERS” (VERTEX PHARMACEUTICALS INCORPORATED, priority 2011, published 2016)
